Usually IC50 stands for the concentration at which inhibition is half-maximal. One may read the GI50 as the concentration that inhibits growth by half. Read a low GI50 as more potent growth inhibition.

The test system of data set [1] is SK-N-AS. In words: Cell growth, CellTitor-Glo assay, 72 h. The format is cell-based. As to conditions: Homo sapiens. How it is done: (§1) The human NB cell lines, SK-N-DZ, SK-N-BE(2)c, SK-N-AS, and LAN-5 obtained from the American Type Culture Collection (Rockville, MD), were cultured in DMEM with 10% fetal bovine serum (FBS), 100 units/ml penicillin, and 100 μg/ml streptomycin in the presence of 5% CO2 at 37° C. Human PBMCs from a healthy donor were purchased from Sanguine BioSciences (Valencia, CA) and grown in RPMI1640 with 10% FBS, 100 units/ml penicillin, 100 μg/ml streptomycin, and 10 ng/ml IL-2 in the presence of 5% CO2 at 37° C. Human embryonic progenitor cell line 7SM0032 was acquired from Millipore (Billerica, MA) and grown in the hEPM-1 Media Kit purchased from the same company. The plasmid pCBASce expresses the rare cutting I-SceI meganuclease. The U20S-derived cell lines, DR-GFP and EJ5-GFP, each contain a stably transfected reporter gene for DSB repair mediated by HR and end joining (EJ), respectively. These cell lines were cultured in DMEM medium with 10% FBS at 37° C. in the presence of 5% CO2.
(§2) To measure the effect of the compounds on cell growth, cells were seeded at 3×10^4/ml into a 96-well plate. Once attached, cells were treated with various concentrations of AOH1160 for 72 h. Cell growth was measured by the CellTitor-Glo assay (Promega, Madison, WI) according to the manufacturer's instructions. To measure apoptosis, cells were seeded at 1×10^5/ml onto a chamber slide. Once attached, cells were treated with the 500 nM AOH1160 for 24 h. Cells were fixed and analyzed by a TUNEL assay using the TMR red in situ cell death detection kit (Roche Diagnostics, Indianapolis, IN).

The test system of data set [2] is SK-N-BE(2)c. In words: Cell growth, CellTitor-Glo assay, 72 h. Type of data set: cell-based. As to conditions: Homo sapiens. On the procedure: as §1, §2
Data set [3] deals with SK-N-DZ. In words: Cell growth, CellTitor-Glo assay, 72 h. Type of data set: cell-based. To be noted: Homo sapiens. How it is done: as §1, §2
In data set [4] the test system is NB cell lines. In words: Cell viability assay on NB cell lines. Type of data set: cell-based, human. To be noted: for concentrations that selectively kill neuroblastoma cells: FIG. 14A. How it is done:
as §2
To identify small molecule compounds that target the PCNA and FEN1 interface, we started with known crystal structures of the PCNA/FEN1 complex that are available from the RCSB protein database. To improve the likelihood of identifying novel small molecules that specifically target caPCNA, we focused our virtual screen on the binding pocket in PCNA delineated by residues L126 and Y133 and screened databases consisting of more than 6.8 million chemical structures available at the AMRI. A set of 57 compounds identified by the virtual screen was acquired and further tested in a cell viability assay. A compound (AOH39) was selected for further development due to its anti-cancer activity and selectivity.

The test system of data set [5] is non-malignant cells. The data set is described as follows: Toxicity to non-malignant cells. Type of data set: cell-based. How it is done: as §2
To improve the anti-tumor potency of the compound while preserving its favorable selectivity, a series of compounds were synthesized and tested. […] The combined improvements in potency and selectivity lead to a significant improvement in the therapeutic window (FIG. 1). AOH1160 was tested in a broad range of non-malignant cells, including human primary mammary epithelial and small airway epithelial cells, and no significant toxicity was found in these cells up to a concentration of 10 μM.

Data set [6] has as its system 7SM0032. The data set is described as follows: Cell cycle analysis (PI, flow cytometry). The format is cell-based, human. As to conditions: for cell cycle effect on normal cells: 7SM0032. On the procedure: (§3) Cells were seeded at 1×10^5/ml in a 6-well plate. Once attached overnight, cells were treated with or without AOH1160 for 6 or 24 h. After being fixed in 60% ethanol and stained with propidium iodide (PI), cells were analyzed by flow cytometry to determine the cellular PI fluorescence intensity. The flow cytometry data were analyzed by the FlowJo program to model various cell populations.
A general note: In flow cytometry, cells or beads pass a laser one at a time.

For data set [7], the system named is γH2A.X, caspase-3 and caspase-9 in SK-N-DZ cells. In words: Western blot. To be noted: NB cells (SK-N-DZ), 500 nM. Type of data set: cell-based, human. How it is done:
Cells were dissolved into the Laemmli sample buffer on the plate. The whole cell extracts were sonicated, and the proteins in the lysate were resolved using a 4-12% SDS polyacrylamide gel, and the resolved proteins were blotted onto a nitrocellulose membrane. Antibodies specific to H2A.X, cleaved caspase-3, full-length caspase-3, or cleaved caspase-9 were purchased from Cell Signaling Technology (Danvers, MA). The anti-γH2A.X antibody was purchased from Millipore. The membrane was blocked with 5% nonfat dry milk and incubated individually with each of these antibodies dissolved in the blocking buffer. After incubation with peroxidase-conjugated secondary antibodies, the protein of interest was detected using an ECL kit purchased from Thermo Fisher Scientific (Waltham, MA).
In general terms: In western blotting, separated proteins are transferred to a membrane and probed.

Data set [8] in a line: Liver microsome assay. Type of data set: in vitro ADME, human. The source says:
FIG. 11. AOH1160 stability in a liver microsome assay. Liver is a major organ responsible for drug metabolism. We tested the stability of AOH1160 in a liver microsome assay. By analyzing the metabolites, we determined a major pathway responsible for AOH1160 metabolism.
Liver is a major organ responsible for drug metabolism. We tested the stability of AOH1160 in a liver microsome assay (FIG. 11). By analyzing the metabolites, we determined a major pathway responsible for AOH1160 metabolism.

The test system of data set [9] is brain tumors. The data set is described as follows: Brain tumors in mice, luciferase imaging. Type of data set: in vivo. To be noted: given once weekly to tumor bearing mice. On the procedure: FIG. 12. Effects of AOH1160 on brain tumors in mice. The compound was given to tumor bearing mice once weekly. The brain cancer cells used in this study contains a luciferase. For measuring tumor growth, luciferin was injected into each mouse. The relative growth of the tumors in live mice was determined by measuring luminescent signals by a CCD camera.
The compound (AOH1160) was give into tumor bearing mice once weekly. The brain cancer cells used in this study contains a luciferase. For measuring tumor growth, luciferin was injected into each mouse. The relative growth of the tumors in live mice was determined by measuring luminescent signals by a CCD camera.

Data set [10] concerns small cell lung cancer cells. In words: Killing of small cell lung cancer cells. Type of data set: cell-based. As to conditions: FIG. 14B.
Data set [11] relates to neuroblastoma cells (SH-SY5Y and SK-N-BE(2)c). In words: Cell cycle analysis. The format is cell-based. How it is done:
as §3

In data set [12] the test system is CAKI-1. The data set is described as follows: NCI-60 panel test. To be noted: Homo sapiens; CAKI-1, NCI-60 5-dose study. Type of data set: cell-based. How it is done: FIG. 7. NCI-60 panel test. The effect of AOH1160 on growth of the NCI-60 panel, which consists of 60 cancer cell lines representing 9 major cancer types, was tested in a 5-dose study. Shown are the Log IC50 values determined for each cell line. […] This study was performed by the National Institute of Cancer.
As observed in FIG. 7, the effect of AOH1160 on growth of the NCI-60 panel, which consists of 60 cancer cell lines representing 9 major cancer types, was tested in a 5-dose study. Shown are the Log IC50 values determined for each cell line.

Structures are written as SMILES. Entries after “also recorded” stand apart in the source; their conditions may differ. Where only a bound is given, the exact number is not on record here.

`O=C(CNC(=O)c1cccc2ccccc12)Nc1ccccc1Oc1ccccc1` [AOH1160]: the IC50 was 0.108 µM in [1]; 0.326 µM in data set [2]; 0.238 µM in [3]; 0.18 to 0.22 µM in [4] (Homo sapiens, multiple NB cell lines, read-out: IC50 range over NB cell lines). Further, the “concentrations that selectively kill neuroblastoma cells” value in data set [4] is recorded as “below micromolar concentrations”. In addition, in [4] (NB cells), the “increase in compound potency over AOH39 in cell viability assays” value is recorded as 6-7 fold. For the same molecule, the “toxicity to non-malignant cells compared with AOH39” value in data set [5] (PBMC and 7SM0032 cells) was “less toxic to non-malignant PBMC and 7SM0032 cells than AOH39”. Besides, in data set [5] (broad range of non-malignant cells incl. human primary mammary epithelial and small airway epithelial cells), the “concentration causing significant toxicity (none found up to)” value was > 10 µM. Also, the “cell cycle effect on normal cells” value in [6] was “exerted little effect on normal cells”. For the same molecule, the cell cycle effect result in [6] (7SM0032 cells, 500 nM) is “doesn't significantly change the cell cycle profiles”; in data set [11], “caused S/G2 cell cycle arrest”. Moreover, in data set [7], the caspase activation result was “activation of caspase-3 and caspase-9”. In addition, the γH2A.X levels entry in [7] was “increases γH2A.X levels”. The “metabolic pathway in liver microsomes” value in [8] (human liver microsomes, NADPH) was “mainly metabolized through mono- and di-hydroxylation in a NADPH-dependent manner”. Besides, the “brain tumor growth (luminescent signals)” value in data set [9] is reported as “inhibited brain tumor growth”. Further, the “concentrations that selectively kill small cell lung cancer cells” value in [10] is reported as “below micromolar concentrations”. In data set [12], this molecule came in with a GI50 of 0.355 µM.

Regarding `O=C(CNC(=O)c1cccc2ccccc12)Nc1ccccc1Oc1ccc(O)cc1` [PCNA1], the IC50 was 0.157 µM in data set [1], 0.49 µM in data set [2] and 0.467 µM in [3].

For `O=C(CNC(=O)c1cccc2ccccc12)Nc1ccccc1Oc1cccc(O)c1` [PCNA2], the IC50 in [1] is 0.192 µM; in data set [2] it was 0.485 µM; in [3], 0.539 µM.

Turning to `COc1ccc(Oc2ccccc2NC(=O)CNC(=O)c2cccc3ccccc23)cc1` [PCNA6], the results for the IC50 in data set [1], in data set [2] and in [3] were 0.091 µM, 0.234 µM and 0.271 µM, respectively.

Consider `COc1cccc(Oc2ccccc2NC(=O)CNC(=O)c2cccc3ccccc23)c1` [PCNA7/ AOH1996], for which the IC50 is 0.125 µM in [1], 0.236 µM in data set [2] and 0.288 µM in [3]. Also, the “concentrations that selectively kill neuroblastoma cells” value in data set [4] is reported as “below micromolar concentrations”. Besides, the “toxicity to non-malignant cells” value in [5] (neural crest stem cells (7SM0032), hSAEC, PBMCs) is reported as “minimal toxicity to non-malignant cells”. Further, the “cell cycle effect on normal cells” value in data set [6] was “exerted little effect on normal cells”. For the same molecule, in [8] (NADPH dependent metabolism), the “stability in a liver microsome assay” value is listed as “stable to NADPH dependent metabolism; also recorded: stable in a liver microsome assay”. The “concentrations that selectively kill small cell lung cancer cells” value in data set [10] is “below micromolar concentrations”. Moreover, the cell cycle effect result in data set [11] was “caused S/G2 cell cycle arrest”. The molecule further displayed a concentration for 50% growth inhibition (GI50) in data set [12] of 0.912 µM.

Values taken from patent US12054447B2, “PCNA inhibitors” (City of Hope, priority 2015, dated 2024).
